Activity calls are given as the source filed them. The calls are words filed in the database; no cut-off is given here.

Assay [1] relates to EAT. As to the kind of experiment: Antitumor activity against Mus musculus (mouse) EAT cells xenografted in Mus musculus Swiss albino (mouse) assessed as decrease in cell viability drug administered on day 7,9 and 11 after tumor transplantation. Format: functional, cell-based.
The next assay relates to HeLa. In words: Antiproliferative activity against Homo sapiens (human) HeLa cells after 48 hr by MTT assay. Format: functional, cell-based. A general note: Tetrazolium assays rely on reduction of a dye to a coloured formazan, in cell work by metabolically active cells.
In assay [2] the test system is HepG2. As to the kind of experiment: Antiproliferative activity against Homo sapiens (human) HepG2 cells after 48 hr by MTT assay. Format: functional, cell-based. The settings on record: HepG2, 48 h.
For assay [3], the system named is HepG2. In words: Induction of apoptosis in Homo sapiens (human) HepG2 cells assessed as DNA fragmentation at 10 uM after 24 hr by agarose gel electrophoresis. Format: functional, cell-based.
In another assay the test system is Mus musculus. As to the kind of experiment: Antiangiogenic activity in EAT cells xenografted in Mus musculus Swiss albino (mouse) assessed as reduction in vasculaization in peritoneal cavity drug administered on day 7,9 and 11 after tumor transplantation. It is filed as functional, organism-based.
In assay [4] the test system is EAT. In words: Induction of apoptosis in Mus musculus (mouse) EAT cells xenografted in Mus musculus Swiss albino (mouse) assessed as appearance of condensed nuclei, membrane blebbing and formation of apoptotic bodies drug administered on day 7,9 and 11 after tumor transplantation by Giemsa, ethidium bromide/acridine orange staining analysis. It is filed as functional, cell-based.

Assay [5] in a line: Antitumor activity against Mus musculus (mouse) EAT cells xenografted in Mus musculus Swiss albino (mouse) assessed as reduction in ascites volume drug administered on day 7,9 and 11 after tumor transplantation […]. It is filed as functional.
In assay [6] the test system is EAT. As to the kind of experiment: Induction of apoptosis in Mus musculus (mouse) EAT cells xenografted in Mus musculus Swiss albino (mouse) assessed as DNA fragmentation drug administered on day 7,9 and 11 after tumor transplantation by agarose gel electrophoresis. Format: functional, cell-based.
In assay [7] the test system is EAT. As to the kind of experiment: Antitumor activity against Mus musculus (mouse) EAT cells xenografted in Mus musculus Swiss albino (mouse) assessed as decrease in tumor burden measured as reduction in body weight drug administered on day 7,9 and 11 after tumor transplantation. Format: functional, cell-based.

Usually IC50 stands for the midpoint of a concentration-inhibition curve. The low end stands for inhibition by little substance, the high end for a need for much substance. In the case of `COc1cc(/C=C2\CC/C(=C\c3ccc(O)c(OC)c3)C2=O)ccc1O`, the inhibition result in the assay with EAT [1], in the assay with Mus musculus and with EAT [7] was “Active” each time. For the same molecule, the IC50 in the assay on HeLa is 42 µM; with HepG2 [2], 44 µM. Further, the result with HepG2 [3], in the assay with EAT [4] and in the assay with EAT [6] was Active. Moreover, the “inhibition (INH)” value in [5] was 70%.

Turning to `COc1ccc(/C=C2\CC/C(=C\c3ccc(OC)c(OC)c3)C2=O)cc1OC`, the inhibition entry in the assay with EAT [1], in the assay with Mus musculus and in the assay with EAT [7] was “Active” in each case. Also, the IC50 in the assay on HeLa was 110 µM; in the assay with HepG2 [2], 106 µM. Moreover, the result with HepG2 [3], in the assay with EAT [4] and with EAT [6] was Active. In addition, the “inhibition (INH)” value in [5] is 70%.

With `O=C1/C(=C/c2ccc(F)cc2)CC/C1=C\c1ccc(F)cc1`, the inhibition entry in the assay on EAT [1], in the assay on Mus musculus and with EAT [7] was “Active” throughout. For the same molecule, the IC50 in the assay on HeLa worked out at 39 µM; with HepG2 [2] it was 48 µM. The result in the assay on HepG2 [3], in the assay with EAT [4] and with EAT [6] was Active. Moreover, the “inhibition (INH)” value in [5] came out at 70%.

For the origin of these results see ChEMBL document CHEMBL3045940, “In vivo peritoneal antiangiogenesis and in vitro antiproliferative properties of some bischalcone derivatives” (Med Chem Res, 2012).
